Measurements as given in the OPERA property sets (Mansouri et al. 2018).

Structure (SMILES) | logP
CCCC(C(N)=O)n1nc2ccccc2n1 (centres undefined) | 1.75
CCCCC(C(=O)OCC)n1nc2ccccc2n1 (centres undefined) | 3.88
c1ccc2nn(C3CCCC3)nc2c1 | 3.04
CC(C)(C(N)=O)n1nnc2ccccc21 | 0.76
CC(C(N)=O)n1nc2ccccc2n1 (centres undefined) | 0.86
c1ccc2c(c1)nnn2C1CCCC1 | 2.61
CCOC(=O)C(C)n1nc2ccccc2n1 (centres undefined) | 2.38
CC(CCC(=O)O)n1nc2ccccc2n1 (centres undefined) | 0.69
c1ccc2nn(C3CCCCC3)nc2c1 | 3.63
CCCC(C(N)=O)n1nnc2ccccc21 (centres undefined) | 1.38
CCOC(=O)CC(C)n1nnc2ccccc21 (centres undefined) | 2.27
CCCCC(C(N)=O)n1nnc2ccccc21 (centres undefined) | 1.88
CCOC(=O)CC(C)n1nc2ccccc2n1 (centres undefined) | 2.7
CC(CC(=O)O)n1nnc2ccccc21 (centres undefined) | -0.2
CC(C)(C(=O)O)n1nnc2ccccc21 | -0.2
CCOC(=O)C(CC)n1nnc2ccccc21 (centres undefined) | 2.34
CCCCC(C(N)=O)n1nc2ccccc2n1 (centres undefined) | 2.28
CCCC(C(=O)OCC)n1nc2ccccc2n1 (centres undefined) | 3.38
CC(C)(C(=O)O)n1nc2ccccc2n1 | 0.64
CCC(C(N)=O)n1nc2ccccc2n1 (centres undefined) | 1.25
CCCC(C(=O)OCC)n1nnc2ccccc21 (centres undefined) | 2.82
CCOC(=O)C(CC)n1nc2ccccc2n1 (centres undefined) | 2.88
CC(CCC(N)=O)n1nc2ccccc2n1 (centres undefined) | 1.35
CCC(C(N)=O)n1nnc2ccccc21 (centres undefined) | 0.88
c1ccc2c(c1)nnn2C1CCCCC1 | 3.11
CCCCC(C(=O)OCC)n1nnc2ccccc21 (centres undefined) | 3.32
CCOC(=O)C(C)n1nnc2ccccc21 (centres undefined) | 1.87
CC(C)(C(N)=O)n1nc2ccccc2n1 | 1.16
CC(CCC(=O)O)n1nnc2ccccc21 (centres undefined) | 0.15
